Data taken from US12533428B2, “Multimodal fluorine-CY3/5/7-DOTA-hapten compositions, diagnostics, fluorescence guided surgery and radioimmunotherapy” (Memorial Sloan Kettering Cancer Center, priority 2019, dated 2026).
Values belong to the compound of their own block, whether it stands above or below them.

How the values were obtained:
[1] = system: SW-1222 tumor; experiment: In vivo tumor uptake using 3-step PRIT; parameters: species or system mice; conditions: for Tumor Uptake: SW-1222 tumor-bearing mice pretreated with anti-GPA33/anti-DOTA BsAb and DOTA-dendrimer clearing agent, in %ID/g
Procedure: The in vivo tumor uptake of [F]Cy3D [^177Lu] ([^177Lu]-Compound 6) was analyzed in tumor-bearing (SW-1222) mice.

[2] = In vivo biodistribution and pharmacokinetics in tumor free mice (gamma counter); conditions: for Biodistribution, comparison of the two probes: FIG. 17B; for Clearance (time course of activity in vital tissues and blood): comparison of the two probes
Procedure: The in vivo biodistribution and pharmacokinetics of ([^177Lu]-Compound 6) and BnDOTA[^177Lu] was investigated in tumor free mice. See FIGS. 17A-17B and Tables 2 and 3. Mice were dosed with radiolabeled probes at t=0 and sacrificed at various time points. Organs were harvested and activity was counted by gamma counter. Tables 2-3 show the serial biodistribution data for the analyzed organs of Compound 6 and Compound 2, respectively. FIG. 17A overlays the time course in activity in either vital tissues (left panel) or the blood (right panel) between the two probes.

[3] = Lg. Intestine, 1 h after dosing
[4] = Lg. Intestine, 2 h after dosing
[5] = Lg. Intestine, 4 h after dosing
[6] = Lg. Intestine, 24 h after dosing
[7] = Lg. Intestine, 48 h after dosing
[8] = Sm. Intestine, 1 h after dosing
[9] = Sm. Intestine, 2 h after dosing
[10] = Sm. Intestine, 4 h after dosing
[11] = Sm. Intestine, 24 h after dosing
[12] = Sm. Intestine, 48 h after dosing

Tumor Uptake ([1]; 1 h): 25.24 ± 4.49 | Tumor Uptake ([1]; 4 h): 21.93 ± 2.25 | Tumor Uptake ([1]; 24 h): 23.17 ± 4.83 | Tumor Uptake ([1]; 48 h): 22.13 ± 5.37 | Uptake ([2]; Blood, 1 h after dosing): 0.122 ± 0.005 % injected Dose/gram | Uptake ([2]; Blood, 2 h after dosing): 0.034 ± 0.005 % injected Dose/gram | Uptake ([2]; Blood, 4 h after dosing): 0.014 ± 0.001 % injected Dose/gram | Uptake ([2]; Blood, 24 h after dosing): 0.004 ± 0.002 % injected Dose/gram | Uptake ([2]; Blood, 48 h after dosing): 0.003 ± 0 % injected Dose/gram | Uptake ([2]; Bone, 1 h after dosing): 0.065 ± 0.009 % injected Dose/gram | Uptake ([2]; Bone, 2 h after dosing): 0.043 ± 0.007 % injected Dose/gram | Uptake ([2]; Bone, 4 h after dosing): 0.038 ± 0.012 % injected Dose/gram | Uptake ([2]; Bone, 24 h after dosing): 0.019 ± 0.003 % injected Dose/gram | Uptake ([2]; Bone, 48 h after dosing): 0.021 ± 0.001 % injected Dose/gram | Uptake ([2]; Brain, 1 h after dosing): 0.007 ± 0.001 % injected Dose/gram | Uptake ([2]; Brain, 2 h after dosing): 0.014 ± 0.01 % injected Dose/gram | Uptake ([2]; Brain, 4 h after dosing): 0.004 ± 0 % injected Dose/gram | Uptake ([2]; Brain, 24 h after dosing): 0.001 ± 0.001 % injected Dose/gram | Uptake ([2]; Brain, 48 h after dosing): 0.001 ± 0 % injected Dose/gram | Biodistribution, comparison of the two probes [2]: comparable biodistribution | Uptake ([2]; Heart, 1 h after dosing): 0.056 ± 0.006 % injected Dose/gram | Uptake ([2]; Heart, 2 h after dosing): 0.027 ± 0.004 % injected Dose/gram | Uptake ([2]; Heart, 4 h after dosing): 0.017 ± 0 % injected Dose/gram | Uptake ([2]; Heart, 24 h after dosing): 0.008 ± 0.006 % injected Dose/gram | Uptake ([2]; Heart, 48 h after dosing): 0.009 ± 0 % injected Dose/gram | Uptake ([2]; Kidneys, 1 h after dosing): 1.021 ± 0.096 % injected Dose/gram | Uptake ([2]; Kidneys, 2 h after dosing): 1.147 ± 0.184 % injected Dose/gram | Uptake ([2]; Kidneys, 4 h after dosing): 0.989 ± 0.1 % injected Dose/gram | Uptake ([2]; Kidneys, 24 h after dosing): 0.66 ± 0.07 % injected Dose/gram | Uptake ([2]; Kidneys, 48 h after dosing): 0.5 ± 0.05 % injected Dose/gram | Uptake [2, 3]: 0.046 ± 0.009 % injected Dose/gram | Uptake [2, 4]: 2.577 ± 0.409 % injected Dose/gram | Uptake [2, 5]: 2.356 ± 1.032 % injected Dose/gram | Uptake [2, 6]: 0.047 ± 0.016 % injected Dose/gram | Uptake [2, 7]: 0.035 ± 0.021 % injected Dose/gram | Uptake ([2]; Liver, 1 h after dosing): 0.119 ± 0.015 % injected Dose/gram | Uptake ([2]; Liver, 2 h after dosing): 0.12 ± 0.025 % injected Dose/gram | Uptake ([2]; Liver, 4 h after dosing): 0.088 ± 0.009 % injected Dose/gram | Uptake ([2]; Liver, 24 h after dosing): 0.063 ± 0.007 % injected Dose/gram | Uptake ([2]; Liver, 48 h after dosing): 0.052 ± 0.007 % injected Dose/gram | Uptake ([2]; Lungs, 1 h after dosing): 0.142 ± 0.017 % injected Dose/gram | Uptake ([2]; Lungs, 2 h after dosing): 0.071 ± 0.01 % injected Dose/gram | Uptake ([2]; Lungs, 4 h after dosing): 0.041 ± 0.004 % injected Dose/gram | Uptake ([2]; Lungs, 24 h after dosing): 0.023 ± 0.005 % injected Dose/gram | Uptake ([2]; Lungs, 48 h after dosing): 0.017 ± 0.001 % injected Dose/gram | Uptake ([2]; Muscle, 1 h after dosing): 0.04 ± 0.009 % injected Dose/gram | Uptake ([2]; Muscle, 2 h after dosing): 0.032 ± 0.014 % injected Dose/gram | Uptake ([2]; Muscle, 4 h after dosing): 0.023 ± 0.013 % injected Dose/gram | Uptake ([2]; Muscle, 24 h after dosing): 0.008 ± 0.003 % injected Dose/gram | Uptake ([2]; Muscle, 48 h after dosing): 0.007 ± 0 % injected Dose/gram | Uptake [2, 8]: 0.914 ± 0.311 % injected Dose/gram | Uptake [2, 9]: 0.958 ± 0.379 % injected Dose/gram | Uptake [2, 10]: 0.169 ± 0.258 % injected Dose/gram | Uptake [2, 11]: 0.022 ± 0.007 % injected Dose/gram | Uptake [2, 12]: 0.016 ± 0.003 % injected Dose/gram | Uptake ([2]; Spleen, 1 h after dosing): 0.06 ± 0.008 % injected Dose/gram | Uptake ([2]; Spleen, 2 h after dosing): 0.048 ± 0.021 % injected Dose/gram | Uptake ([2]; Spleen, 4 h after dosing): 0.032 ± 0.004 % injected Dose/gram | Uptake ([2]; Spleen, 24 h after dosing): 0.029 ± 0.002 % injected Dose/gram | Uptake ([2]; Spleen, 48 h after dosing): 0.022 ± 0.001 % injected Dose/gram | Uptake ([2]; Stomach, 1 h after dosing): 0.734 ± 1.363 % injected Dose/gram | Uptake ([2]; Stomach, 2 h after dosing): 0.985 ± 0.861 % injected Dose/gram | Uptake ([2]; Stomach, 4 h after dosing): 0.186 ± 0.256 % injected Dose/gram | Uptake ([2]; Stomach, 24 h after dosing): 0.02 ± 0.011 % injected Dose/gram | Uptake ([2]; Stomach, 48 h after dosing): 0.019 ± 0 % injected Dose/gram | Uptake ([2]; Tail, 1 h after dosing): 0.279 ± 0.079 % injected Dose/gram | Uptake ([2]; Tail, 2 h after dosing): 0.237 ± 0.128 % injected Dose/gram | Uptake ([2]; Tail, 4 h after dosing): 0.154 ± 0.102 % injected Dose/gram | Uptake ([2]; Tail, 24 h after dosing): 0.079 ± 0.026 % injected Dose/gram | Uptake ([2]; Tail, 48 h after dosing): 0.018 ± 0.016 % injected Dose/gram | Clearance (time course of activity in vital tissues and blood) [2]: cleared at similar rates
Compound: CC1(C)C(=CC=CC2=[N+](CCCCCC(=O)NCC[N+](C)(C)C[B-](F)(F)F)c3ccc(S(=O)(=O)[O-])cc3C2(C)C)N(CCCCCC(=O)Nc2ccc(CC3CN(CC(=O)[O-])CCN(CC(=O)[O-])CCN(CC(=O)[O-])CCN3CC(=O)[O-])cc2)c2ccc(S(=O)(=O)[O-])cc21.[177Lu+3] (stereo not shown) [[^177Lu]-Compound 6, [F]Cy3D[^177Lu]]
Binding to BsAb-treated tumor in vivo compared to the standard BnDOTA[^177Lu] ([1]; SW-1222 tumor-bearing mice, 3-step PRIT): equal specificity and efficacy

Uptake ([2]; Blood, 1 h after dosing): 0.068 ± 0.029 % injected Dose/gram | Uptake ([2]; Blood, 2 h after dosing): 0.013 ± 0.005 % injected Dose/gram | Uptake ([2]; Blood, 4 h after dosing): 0.001 ± 0 % injected Dose/gram | Uptake ([2]; Blood, 24 h after dosing): 0.001 ± 0 % injected Dose/gram | Uptake ([2]; Blood, 48 h after dosing): 0.001 ± 0.001 % injected Dose/gram | Uptake ([2]; Bone, 1 h after dosing): 0.04 ± 0.012 % injected Dose/gram | Uptake ([2]; Bone, 2 h after dosing): 0.325 ± 0.276 % injected Dose/gram | Uptake ([2]; Bone, 4 h after dosing): 0.015 ± 0.013 % injected Dose/gram | Uptake ([2]; Bone, 24 h after dosing): 0.01 ± 0.008 % injected Dose/gram | Uptake ([2]; Bone, 48 h after dosing): 0.018 ± 0.028 % injected Dose/gram | Uptake ([2]; Brain, 1 h after dosing): 0.015 ± 0.006 % injected Dose/gram | Uptake ([2]; Brain, 2 h after dosing): 0.025 ± 0.01 % injected Dose/gram | Uptake ([2]; Brain, 4 h after dosing): 0.01 ± 0 % injected Dose/gram | Uptake ([2]; Brain, 24 h after dosing): 0.001 ± 0 % injected Dose/gram | Uptake ([2]; Brain, 48 h after dosing): 0.001 ± 0.001 % injected Dose/gram | Biodistribution, comparison of the two probes [2]: comparable biodistribution | Uptake ([2]; Heart, 1 h after dosing): 0.033 ± 0.013 % injected Dose/gram | Uptake ([2]; Heart, 2 h after dosing): 0.023 ± 0.005 % injected Dose/gram | Uptake ([2]; Heart, 4 h after dosing): 0.01 ± 0 % injected Dose/gram | Uptake ([2]; Heart, 24 h after dosing): 0.01 ± 0 % injected Dose/gram | Uptake ([2]; Heart, 48 h after dosing): 0.016 ± 0.03 % injected Dose/gram | Uptake ([2]; Kidneys, 1 h after dosing): 0.86 ± 0.177 % injected Dose/gram | Uptake ([2]; Kidneys, 2 h after dosing): 0.8 ± 0.065 % injected Dose/gram | Uptake ([2]; Kidneys, 4 h after dosing): 0.695 ± 0.106 % injected Dose/gram | Uptake ([2]; Kidneys, 24 h after dosing): 0.448 ± 0.109 % injected Dose/gram | Uptake ([2]; Kidneys, 48 h after dosing): 0.233 ± 0.153 % injected Dose/gram | Uptake [2, 3]: 0.088 ± 0.083 % injected Dose/gram | Uptake [2, 4]: 2.878 ± 2.718 % injected Dose/gram | Uptake [2, 5]: 1.865 ± 0.963 % injected Dose/gram | Uptake [2, 6]: 0.02 ± 0 % injected Dose/gram | Uptake [2, 7]: 0.018 ± 0.013 % injected Dose/gram | Uptake ([2]; Liver, 1 h after dosing): 0.658 ± 0.074 % injected Dose/gram | Uptake ([2]; Liver, 2 h after dosing): 0.358 ± 0.083 % injected Dose/gram | Uptake ([2]; Liver, 4 h after dosing): 0.065 ± 0.024 % injected Dose/gram | Uptake ([2]; Liver, 24 h after dosing): 0.028 ± 0.01 % injected Dose/gram | Uptake ([2]; Liver, 48 h after dosing): 0.018 ± 0.012 % injected Dose/gram | Uptake ([2]; Lungs, 1 h after dosing): 0.083 ± 0.032 % injected Dose/gram | Uptake ([2]; Lungs, 2 h after dosing): 0.048 ± 0.005 % injected Dose/gram | Uptake ([2]; Lungs, 4 h after dosing): 0.023 ± 0.005 % injected Dose/gram | Uptake ([2]; Lungs, 24 h after dosing): 0.013 ± 0.005 % injected Dose/gram | Uptake ([2]; Lungs, 48 h after dosing): 0.01 ± 0 % injected Dose/gram | Uptake ([2]; Muscle, 1 h after dosing): 0.028 ± 0.01 % injected Dose/gram | Uptake ([2]; Muscle, 2 h after dosing): 0.043 ± 0.013 % injected Dose/gram | Uptake ([2]; Muscle, 4 h after dosing): 0.013 ± 0.005 % injected Dose/gram | Uptake ([2]; Muscle, 24 h after dosing): 0.003 ± 0.005 % injected Dose/gram | Uptake ([2]; Muscle, 48 h after dosing): 0.051 ± 0.1 % injected Dose/gram | Uptake [2, 8]: 1.493 ± 0.554 % injected Dose/gram | Uptake [2, 9]: 0.86 ± 0.389 % injected Dose/gram | Uptake [2, 10]: 0.128 ± 0.05 % injected Dose/gram | Uptake [2, 11]: 0.01 ± 0 % injected Dose/gram | Uptake [2, 12]: 0.005 ± 0.006 % injected Dose/gram | Uptake ([2]; Spleen, 1 h after dosing): 0.06 ± 0.041 % injected Dose/gram | Uptake ([2]; Spleen, 2 h after dosing): 0.053 ± 0.005 % injected Dose/gram | Uptake ([2]; Spleen, 4 h after dosing): 0.025 ± 0.01 % injected Dose/gram | Uptake ([2]; Spleen, 24 h after dosing): 0.023 ± 0.005 % injected Dose/gram | Uptake ([2]; Spleen, 48 h after dosing): 0.01 ± 0.012 % injected Dose/gram | Uptake ([2]; Stomach, 1 h after dosing): 0.06 ± 0.055 % injected Dose/gram | Uptake ([2]; Stomach, 2 h after dosing): 0.2 ± 0.071 % injected Dose/gram | Uptake ([2]; Stomach, 4 h after dosing): 0.045 ± 0.017 % injected Dose/gram | Uptake ([2]; Stomach, 24 h after dosing): 0.01 ± 0 % injected Dose/gram | Uptake ([2]; Stomach, 48 h after dosing): 0.013 ± 0.013 % injected Dose/gram | Uptake ([2]; Tail, 1 h after dosing): 0.245 ± 0.179 % injected Dose/gram | Uptake ([2]; Tail, 2 h after dosing): 0.183 ± 0.056 % injected Dose/gram | Uptake ([2]; Tail, 4 h after dosing): 0.118 ± 0.041 % injected Dose/gram | Uptake ([2]; Tail, 24 h after dosing): 0.065 ± 0.044 % injected Dose/gram | Uptake ([2]; Tail, 48 h after dosing): 0.01 ± 0.008 % injected Dose/gram | Clearance (time course of activity in vital tissues and blood) [2]: cleared at similar rates
Compound: BnDOTA[^177Lu] [[^177Lu]-Compound 2, reference compound]
